Test results as given in patent US7915050B2, “Regulatory genes for plant differentiation and growth, and use of the same” (National University Corporation Nagoya University, priority 2005, dated 2011).

Target: T1, AtGID1a (Arabidopsis thaliana, UniProt Q9MAA7)
T1 construct: made in house; host or cells: E. coli
T1 sequence (Q9MAA7 1-345): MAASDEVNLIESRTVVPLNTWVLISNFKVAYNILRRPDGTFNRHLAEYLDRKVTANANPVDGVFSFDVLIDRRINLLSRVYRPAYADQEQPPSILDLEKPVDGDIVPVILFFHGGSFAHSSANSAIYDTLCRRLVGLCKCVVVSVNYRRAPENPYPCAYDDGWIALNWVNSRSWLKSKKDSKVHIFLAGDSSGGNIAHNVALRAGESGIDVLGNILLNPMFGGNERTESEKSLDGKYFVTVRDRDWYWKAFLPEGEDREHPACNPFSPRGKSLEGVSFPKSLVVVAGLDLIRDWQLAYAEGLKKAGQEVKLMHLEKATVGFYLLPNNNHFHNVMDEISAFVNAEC
Experiment: Scatchard analysis of GA binding of AtGID1a
Conditions: equilibrium conditions
Protocol: Panels A) to C) depict the results of Scatchard plot analyses for the GA binding of AtGID1. Results for AtGID1a (A), AtGID1b (B), and AtGID1c (C) are shown. The Kd values for 16,17-dihydro-GA4 was determined by adding various concentrations of GA to the assay mixture. Standard deviation (SD) was determined from these three independent measurements. The insets show time-course characteristics for the GA binding of AtGID1 and replacement (arrow) using an excess amount of non-labeled GA4 (0.125 mM). Panels D) to F) depict the GA binding activities of AtGID1 under different pH conditions. Results for AtGID1a (D), AtGID1b (E), and AtGID1c (F) are shown. The non-specific binding activity (UB) was determined by adding 0.125 mM GA4 to the assay solution, and this was subtracted from the total binding activity (B) to determine the specific binding activity (B-UB).
Specifically, the coding region of the AtGID1 gene was amplified by PCR using specific primers designed based on the full-length cDNA sequence of the AtGID1 gene and having appropriate restriction sites at each end. […]
The kinetics, ligand selectivity, and pH dependence of GA binding for the three AtGID1s identified as described above were examined using the tritiated GA4 derivative 16,17-dihydro-GA4. […] Furthermore, the kinetics of GA binding of each AtGID1 was analyzed under equilibrium conditions of GA at various concentrations.

CC1C[C@]23C[C@H]1CCC2[C@]12CC[C@H](O)[C@](C)(C(=O)O1)[C@H]2[C@@H]3C(=O)O (stereo partly shown) [H2-GA4, 16,17-dihydro-GA4]
Kd: 2 µM
